Reference: patent publication US20100190747A1, “Fused ring compound and use thereof” (priority 2009, published 2010)

Target: T1, delta-5-desaturase (Rattus norvegicus, UniProt Q920R3)
T1 construct: the microsomal fraction of a rat river (10 μl), which had been diluted to 3 mg/ml; from tissue; host or cells: rat liver microsomal fraction
Experiment: Inhibitory activity on delta-5-desaturase (rat liver microsomal fraction, 14C-eicosatrienoic acid, TLC)
Type: biochemical
Settings: test compound at 10 μM, room temperature, 120 minutes
Method in brief: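 Rat liver microsomes (3 mg/ml before addition) incubated with test compound at 10 μM, NADH, ATP, CoA and 14C-eicosatrienoic acid in phosphate buffer pH 7.4 with BSA and glutathione, 120 min at room temperature. Lipids saponified, extracted, separated by reverse-phase TLC and imaged; % inhibition reported.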

T1 sequence (Q920R3 whole entry): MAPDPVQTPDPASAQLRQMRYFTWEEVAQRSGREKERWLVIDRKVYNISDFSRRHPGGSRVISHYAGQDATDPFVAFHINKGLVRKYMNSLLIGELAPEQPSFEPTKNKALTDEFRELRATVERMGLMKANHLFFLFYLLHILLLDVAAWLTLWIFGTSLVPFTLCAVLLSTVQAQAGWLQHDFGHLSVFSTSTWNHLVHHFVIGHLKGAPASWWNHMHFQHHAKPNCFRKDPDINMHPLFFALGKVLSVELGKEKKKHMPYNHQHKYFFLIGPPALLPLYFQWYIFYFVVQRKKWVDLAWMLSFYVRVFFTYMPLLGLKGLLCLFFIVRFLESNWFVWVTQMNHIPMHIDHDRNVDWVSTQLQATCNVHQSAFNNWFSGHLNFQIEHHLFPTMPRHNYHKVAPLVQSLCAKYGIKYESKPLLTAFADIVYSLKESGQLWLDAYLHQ

| inhibition at 10 µM | Compound |
| --- | --- |
| 101% | COCCOCCCSc1nc2[nH]ccc2c(=O)n1-c1ccc(OCC(F)(F)F)cc1 [Example 191, 2-{[3-(2-Methoxyethoxy)propyl]sulfanyl}-3-[4-(2,2,2-trifluoroethoxy)phenyl]-3,7-dihydro-4H-pyrrolo[2,3-d]pyrimidin-4-one] |
| 101% | CCOCCOCCSc1nc2[nH]ccc2c(=O)n1-c1ccc(OCC(F)(F)F)cc1 [Example 192, 2-{[2-(2-Ethoxyethoxy)ethyl]sulfanyl}-3-[4-(2,2,2-trifluoroethoxy)phenyl]-3,7-dihydro-4H-pyrrolo[2,3-d]pyrimidin-4-one] |
| 103% | CCSc1nc2[nH]ccc2c(=O)n1-c1ccc(OCC(F)(F)F)cc1 [Example 194, 2-(Ethylsulfanyl)-3-[4-(2,2,2-trifluoroethoxy)phenyl]-3,7-dihydro-4H-pyrrolo[2,3-d]pyrimidin-4-one] |
| 101% | CCS(=O)(=O)c1nc2[nH]ccc2c(=O)n1-c1ccc(OCC(F)(F)F)cc1 [Example 207, 2-(Ethylsulfonyl)-3-[4-(2,2,2-trifluoroethoxy)phenyl]-3,7-dihydro-4H-pyrrolo[2,3-d]pyrimidin-4-one] |
| 99% | CCOc1nc2[nH]ccc2c(=O)n1-c1ccc(OCC(F)(F)F)cc1 [Example 209, 2-Ethoxy-3-[4-(2,2,2-trifluoroethoxy)phenyl]-3,7-dihydro-4H-pyrrolo[2,3-d]pyrimidin-4-one] |
| 98% | CSc1nc2[nH]ccc2c(=O)n1-c1ccc(OCC(F)(F)F)cc1 [Example 212, 2-(Methylsulfanyl)-3-[4-(2,2,2-trifluoroethoxy)phenyl]-3,7-dihydro-4H-pyrrolo[2,3-d]pyrimidin-4-one] |
| 100% | CCOCCCSc1nc2[nH]ccc2c(=O)n1-c1ccc(OCC(F)(F)F)cc1 [Example 213, 2-[(3-Ethoxypropyl)sulfanyl]-3-[4-(2,2,2-trifluoroethoxy)phenyl]-3,7-dihydro-4H-pyrrolo[2,3-d]pyrimidin-4-one] |
| 101% | O=c1c2cc[nH]c2nc(SCCO)n1-c1ccc(OCC(F)(F)F)cc1 [Example 214, 2-[(2-Hydroxyethyl)sulfanyl]-3-[4-(2,2,2-trifluoroethoxy)phenyl]-3,7-dihydro-4H-pyrrolo[2,3-d]pyrimidin-4-one] |
| 99% | CCCOc1nc2[nH]ccc2c(=O)n1-c1ccc(OCC(F)(F)F)cc1 [Example 217, 2-Propoxy-3-[4-(2,2,2-trifluoroethoxy)phenyl]-3,7-dihydro-4H-pyrrolo[2,3-d]pyrimidin-4-one] |
| 102% | O=c1c2cc[nH]c2nc(SCC(O)COC2CCOCC2)n1-c1ccc(OCC(F)(F)F)cc1 (centres unmarked) [Example 219, 2-{[2-Hydroxy-3-(tetrahydro-2H-pyran-4-yloxy)propyl]sulfanyl}-3-[4-(2,2,2-trifluoroethoxy)phenyl]-3,7-dihydro-4H-pyrrolo[2,3-d]pyrimidin-4-one] |
| 104% | CC(C)Oc1nc2[nH]ccc2c(=O)n1-c1ccc(OCC(F)(F)F)cc1 [Example 221, 2-(1-Methylethoxy)-3-[4-(2,2,2-trifluoroethoxy)phenyl]-3,7-dihydro-4H-pyrrolo[2,3-d]pyrimidin-4-one] |
| 103% | O=c1c2cc[nH]c2nc(SC(F)F)n1-c1ccc(OCC(F)(F)F)cc1 [Example 223, 2-[(Difluoromethyl)sulfanyl]-3-[4-(2,2,2-trifluoroethoxy)phenyl]-3,7-dihydro-4H-pyrrolo[2,3-d]pyrimidin-4-one] |
| 100% | CCCSc1nc2[nH]ccc2c(=O)n1-c1ccc(OCC(F)(F)F)cc1 [Example 224, 2-(Propylsulfanyl)-3-[4-(2,2,2-trifluoroethoxy)phenyl]-3,7-dihydro-4H-pyrrolo[2,3-d]pyrimidin-4-one] |
| 100% | O=c1c2cc[nH]c2nc(SCC(F)(F)F)n1-c1ccc(OCC(F)(F)F)cc1 [Example 225, 3-[4-(2,2,2-Trifluoroethoxy)phenyl]-2-[(2,2,2-trifluoroethyl)sulfanyl]-3,7-dihydro-4H-pyrrolo[2,3-d]pyrimidin-4-one] |
| 102% | O=c1c2cc[nH]c2nc(OCC2CC2)n1-c1ccc(OCC(F)(F)F)cc1 [Example 226, 2-(Cyclopropylmethoxy)-3-[4-(2,2,2-trifluoroethoxy)phenyl]-3,7-dihydro-4H-pyrrolo[2,3-d]pyrimidin-4-one] |

The next lines start with the compound.

| Compound | inhibition at 10 µM |
| --- | --- |
| N#CCCNC(=O)CCCSc1nc2[nH]ccc2c(=O)n1-c1ccc(OCC2CC2(F)F)cc1 (centres unmarked) [Example 177, N-(2-cyanoethyl)-4-[(3-{4-[(2,2-difluorocyclopropyl)methoxy]phenyl}-4-oxo-4,7-dihydro-3H-pyrrolo[2,3-d]pyrimidin-2-yl)sulfanyl]butanamide] | 100% |
| N#CCCNC(=O)CCCSc1nc2[nH]ccc2c(=O)n1-c1ccc(OCC2CCC2)cc1 [Example 183, N-(2-cyanoethyl)-4-({3-[4-(cyclobutylmethoxy)phenyl]-4-oxo-4,7-dihydro-3H-pyrrolo[2,3-d]pyrimidin-2-yl}sulfanyl)butanamide] | 99% |
| N#CCCNC(=O)CCCSc1nc2[nH]ccc2c(=O)n1-c1ccc(OCC2CC2)cc1 [Example 185, N-(2-cyanoethyl)-4-({3-[4-(cyclopropylmethoxy)phenyl]-4-oxo-4,7-dihydro-3H-pyrrolo[2,3-d]pyrimidin-2-yl}sulfanyl)butanamide] | 97% |
| N#CCCNC(=O)CCCSc1nc2[nH]ccc2c(=O)n1-c1ccc(OCCCC(F)(F)F)cc1 [Example 186, N-(2-cyanoethyl)-4-({4-oxo-3-[4-(4,4,4-trifluorobutoxy)phenyl]-4,7-dihydro-3H-pyrrolo[2,3-d]pyrimidin-2-yl}sulfanyl)butanamide] | 100% |
| CC1(COc2ccc(-n3c(SCCCC(=O)NCCC#N)nc4[nH]ccc4c3=O)cc2)CC1 [Example 188, N-(2-cyanoethyl)-4-[(3-{4-[(1-methylcyclopropyl)methoxy]phenyl}-4-oxo-4,7-dihydro-3H-pyrrolo[2,3-d]pyrimidin-2-yl)sulfanyl]butanamide] | 98% |
| N#CCCNC(=O)CCCSc1nc2[nH]ccc2c(=O)n1-c1ccc(OCCC(F)(F)F)cc1 [Example 189, N-(2-cyanoethyl)-4-({4-oxo-3-[4-(3,3,3-trifluoropropoxy)phenyl]-4,7-dihydro-3H-pyrrolo[2,3-d]pyrimidin-2-yl}sulfanyl)butanamide] | 105% |
| CCn1ccc2c(=O)n(-c3ccc(OCC(F)(F)F)cc3)c(SCCCC(=O)NCCC#N)nc21 [Example 193] | 100% |
| Cn1ccc2c(=O)n(-c3ccc(OCC(F)(F)F)cc3)c(SCCCC(=O)NCCC#N)nc21 [Example 195] | 101% |
| CCSc1nc2[nH]ccc2c(=O)n1-c1ccc(OCC2CC2)cc1 [Example 208, 3-[4-(Cyclopropylmethoxy)phenyl]-2-(ethylsulfanyl)-3,7-dihydro-4H-pyrrolo[2,3-d]primidin-4-one] | 100% |
| CS(=O)(=O)CCCSc1nc2[nH]ccc2c(=O)n1-c1ccc(OCC2CC2)cc1 [Example 215, 3-[4-(Cyclopropylmethoxy)phenyl]-2-{[3-(methylsulfonyl)propyl]sulfanyl}-3,7-dihydro-4H-pyrrolo[2,3-d]pyrimidin-4-one] | 102% |
| CCCCOc1nc2[nH]ccc2c(=O)n1-c1ccc(OCC(F)(F)F)cc1 [Example 222, 2-Butoxy-3-[4-(2,2,2-trifluoroethoxy)phenyl]-3,7-dihydro-4H-pyrrolo[2,3-d]pyrimidin-4-one] | 101% |
